pIC50: −log10 of the molar value.
What was measured:
[1] = molecular target: Gppcp-bound recombinant K-Ras4B G12C mutant protein (amino acids 1-169, C51S/C80L/C118S) (Homo sapiens, UniProt P01116, C118S/C51S/C80L/G12C); test: KRASG12C binding assay (LC-MS, compound binding rate); details: test compound final concentration 0.5 μM, 25° C., 1 hour
Method: As test compounds for the KRASG12C binding assay, the compounds obtained in the “Preparation of Compounds” section were used. Sample solutions each containing a test compound were prepared in the form of a 10 mM DMSO solution.
Gppcp-bound recombinant K-Ras4B G12C mutant protein (amino acids 1-169, C51S/C80L/C118S, SEQ ID NO:1) was diluted with a buffer (1×TBS, 0.1 mM TCEP, 0.25 mM MgCl2, 50 μM Gppcp) to prepare a 50 nM protein solution. K-Ras4B is the major splicing variant of K-Ras. Amino acid sequence of residues 1 to 150 including the compounds' binding region of K-Ras4B is exactly same as that of K-Ras4A, the other splicing variant (Oncotarget. 2016 Jul. 19; 7(29): 46717-46733). A sample solution containing 10 mM test compound was diluted ten-fold with DMSO to make a 1 mM sample solution, and then diluted twenty-fold with DMSO to make a 50 μM sample solution. 1 μL of a 50 μM sample solution was added to 100 μL of a 50 nM protein solution to adjust the final concentration of a test compound to be 0.5 μM in the mixture. The mixtures were stored in an incubator at 25° C. for 1 hour, and 10 μL of a 1×TBS solution containing 2% formic acid was added to stop the reaction, followed by LC-MS measurement. LC-MS measurement was performed using Xevo G2-S Q-Tof manufactured by Waters, and reverse-phase chromatography was performed with a desalting column. A mass spectrum of positive ions was obtained by electrospray. For a mass spectrum, a spectrum of polyvalent ions was collectively converted to a molecular weight by using OpenLynx software by the MaxEnt technique, and a compound binding rate was calculated from the ratio of the signal intensity of a peak that corresponds to the molecular weight of the protein to the signal intensity of a peak that corresponds to the molecular weight of the protein conjugated with the compound.
The binding assay of the test compounds was conducted at a final concentration of 0.5 μM. A binding rate of 80% or more is rated “A”, a binding rate of 60% or more and less than 80% is rated “B”, a binding rate of 40% or more and less than 60% is rated “C”, a binding rate of 20% or more and less than 40% is rated “D”, and a binding rate of less than 20% is rated “E”. N.D.=not determined. Binding rate % is the ratio of KRAS signal intensity at the molecular weight of one molecule adduct to the sum of all the KRAS signal intensity (unbound form and adducts) in mass spectrum. Thus, binding rate 100% means that only the one molecule adduct was observed without any unbound KRAS. The following tables show the results.

[2] = molecular target: T1, interaction between recombinant K-Ras4B G12C mutant protein and cRAF RAS-binding domain (cRAF-RBD) (Homo sapiens, UniProt P01116, G12C); test: Inhibitory activity on interaction between KRAS G12C and cRAF (Alpha technology); format: biochemical; details: GMPPNP-bound KRAS G12C incubated with compound at 25° C. for 1 hour, then cRAF-RBD; Alpha signal
T1 construct: made in house; host or cells: E. coli
Method: Interaction between recombinant K-Ras4B G12C mutant protein (amino acids 1-169, SEQ ID NO:2) and cRAF RAS-binding domain (cRAF-RBD, amino acids 50-132, Jena Biosciences GmbH) was measured using Alpha technology (PerkinElmer Inc.).
Recombinant KRAS G12C protein with an N-terminal His-tag was expressed in E. coli and purified by affinity chromatography. To prepare GTP-bound form and GDP-bound form of KRAS G12C protein. 50 μM KRAS G12C protein was incubated with 1 mM GMPPNP (Guanosine-5′-[(β,γ)-imido]triphosphate. Tetralithium salt)(Jena Bioscience GmbH) and 1 mM GDP, respectively, in a loading buffer (20 mM Tris-HCl (pH 7.5), 50 mM NaCl, 1 mM DTT and 2.5 mM EDTA) for 1 hour on ice. After the incubation, MgCl2 was added to a final concentration of 10 mM, followed by incubation at room temperature for 30 minutes. The mixture was allowed to pass through a NAP-5 column to remove free nucleotides and purified, and the resultant nucleotide-bound KRAS G12C protein was used for compound evaluation.
For the measurement of the inhibitory activity of compounds on interaction between KRAS G12C and cRAF-RBD, GMPPNP-bound KRAS G12C protein was incubated with various concentrations of compound in a reaction buffer (20 mM Tris-HCl (pH 7.5), 100 mM NaCl, 1 mM MgCl2, 1 mM TCEP. 0.1% Tween 20) at 25° C. for 1 hour. After the incubation, recombinant cRAF-RBD and Alpha detection reagents were added and incubated at room temperature for 1.5 hours for binding. Interaction of KRAS G12C and cRAF-RBD was monitored by measuring Alpha signal. Inhibition % was calculated using the signal from the reaction without test compound (DMSO control) as 0% inhibition and the signal from the reaction using GDP-bound KRAS G12C in place of GMPPNP-bound KRAS G12C as 100% inhibition. IC50 values were calculated from dose titration curve using curve fitting by XLfit software (IDBS). The following tables show the results.

MIA PaCa-2 cells = test: Growth inhibition activity on KRAS-G12C mutant cell line (MIA PaCa-2), CellTiter-Glo 3D; format: cell-based, human; details: MIA PaCa-2, 3-day culture with compound
Method: MIA PaCa-2 cells (given by Sumitomo Dainippon Pharma Co., Ltd.), which are a KRAS-G12C mutant human pancreas cancer cell line, were suspended in a 10% fetal bovine serum-containing RPMI1640 medium (manufactured by Fujifilm Wako Pure Chemical Corporation.). The cell suspension was seeded into each well of a 384-well U bottom microplate and cultured in an incubator containing 5% CO2 gas at 37° C. for 1 day. The compounds obtained in the “Preparation of Compounds” section were used as test compounds and were dissolved in DMSO, respectively, and each test compound was diluted with DMSO to give a concentration 500 times the final concentration. The resultant solution of the test compound in DMSO was diluted with the medium used for suspending cells and added to each well of the cell-culture plate to give a DMSO final concentration of 0.2%, followed by culture in an incubator containing 5% CO2 gas at 37° C. for another 3 days. The cell count after 3-day culture in the presence of the test compound was measured using CellTiter-Glo 3D Reagent (manufactured by Promega Corporation). All wells were added with CellTiter-Glo 3D Reagent and mixed for 10 minutes. 30 minutes after mixing, luminescence was measured by a plate reader. The growth inhibition rate was calculated from the following equation, and the concentration of the test compound at which 50/o inhibition was achieved (IC50 (nM)) was determined. The following tables show the results.
[formula] • T: the emission intensity in a well into which a test compound was added. • C: the emission intensity in a well into which a test compound was not added.

Structure (SMILES)	pIC50 [2]	pIC50 (MIA PaCa-2 cells)	binding rate [1]
CO[C@H]1CC[C@H](NC/C=C/C(=O)Nc2c(F)cc(C(=O)c3ccc4c(-c5c(Cl)cc6c(ncn6C)c5Cl)cccn34)cc2F)CC1 (single isomer, unassigned) [Example 15-2, (E)-N-(4-(8-(4,6-dichloro-1-methyl-1H-benzo[d]imidazol-5-yl)indolizine-3-carbonyl)-2,6-difluorophenyl)-4-(((1r,4r)-4-methoxycyclohexyl)amino)but-2-enamide]	6.72	6.66	A (A binding rate of 80% or more is rated “A”)
Cc1cc2c(nc(C)n2C)c(Cl)c1-c1cccn2c(C(=O)c3cc(F)c(NC(=O)/C=C/CNC(C)(C)C)c(F)c3)ccc12 (single isomer, unassigned) [Example 18-1, (E)-4-(tert-butylamino)-N-(4-(8-(4-chloro-1,2,6-trimethyl-1H-benzo[d]imidazol-5-yl)indolizine-3-carbonyl)-2,6-difluorophenyl)but-2-enamide]	7.54	7.54	A (A binding rate of 80% or more is rated “A”)
Cc1cc2c(nc(C)n2C)c(Cl)c1-c1cccn2c(C(=O)c3cc(F)c(NC(=O)/C=C/CNC(C)(C)C)c(F)c3)ccc12 (single isomer, unassigned) [Example 18-2, (E)-4-(tert-butylamino)-N-(4-(8-(4-chloro-1,2,6-trimethyl-1H-benzo[d]imidazol-5-yl)indolizine-3-carbonyl)-2,6-difluorophenyl)but-2-enamide]	6.66	6.64	A (A binding rate of 80% or more is rated “A”)
CO[C@H]1CC[C@H](NC/C=C/C(=O)Nc2c(F)cc(C(=O)c3ccc4c(-c5c(C)cc6c(nc(C)n6C)c5Cl)cccn34)cc2F)CC1 (single isomer, unassigned) [Example 19-1, (E)-N-(4-(8-(4-chloro-1,2,6-trimethyl-1H-benzo[d]imidazol-5-yl)indolizine-3-carbonyl)-2,6-difluorophenyl)-4-(((1r,4r)-4-methoxycyclohexyl)amino)but-2-enamide]	7.70	7.33	A (A binding rate of 80% or more is rated “A”)
CO[C@H]1CC[C@H](NC/C=C/C(=O)Nc2c(F)cc(C(=O)c3ccc4c(-c5c(C)cc6c(nc(C)n6C)c5Cl)cccn34)cc2F)CC1 (single isomer, unassigned) [Example 19-2, (E)-N-(4-(8-(4-chloro-1,2,6-trimethyl-1H-benzo[d]imidazol-5-yl)indolizine-3-carbonyl)-2,6-difluorophenyl)-4-(((1r,4r)-4-methoxycyclohexyl)amino)but-2-enamide]	6.85	6.80	A (A binding rate of 80% or more is rated “A”)
CCc1cc2c(nc(C)n2C)c(Cl)c1-c1cccn2c(C(=O)c3cc(F)c(NC(=O)/C=C/CN[C@H]4CC[C@H](OC)CC4)c(F)c3)ccc12 (single isomer, unassigned) [Example 22-2, (E)-N-(4-(8-(4-chloro-6-ethyl-1,2-dimethyl-1H-benzo[d]imidazol-5-yl)indolizine-3-carbonyl)-2,6-difluorophenyl)-4-(((1r,4r)-4-methoxycyclohexyl)amino)but-2-enamide]	6.96	6.39	A (A binding rate of 80% or more is rated “A”)

Continued by rising pIC50 [2], values first:

pIC50 [2]	pIC50 (MIA PaCa-2 cells)	Structure (SMILES)	binding rate [1]
6.70	6.70	Cn1cnc2c(Cl)c(-c3cccn4c(C(=O)c5cc(F)c(NC(=O)/C=C/CNC(C)(C)C)c(F)c5)ccc34)c(Cl)cc21 (single isomer, unassigned) [Example 20-1, (E)-4-(tert-butylamino)-N-(4-(8-(4,6-dichloro-1-methyl-1H-benzo[d]imidazol-5-yl)indolizine-3-carbonyl)-2,6-difluorophenyl)but-2-enamide]	A (A binding rate of 80% or more is rated “A”)
7.38	7.34	CO[C@H]1CC[C@H](NC/C=C/C(=O)Nc2c(F)cc(C(=O)c3ccc4c(-c5c(Cl)cc6c(ncn6C)c5Cl)cccn34)cc2F)CC1 (single isomer, unassigned) [Example 15-1, (E)-N-(4-(8-(4,6-dichloro-1-methyl-1H-benzo[d]imidazol-5-yl)indolizine-3-carbonyl)-2,6-difluorophenyl)-4-(((1r,4r)-4-methoxycyclohexyl)amino)but-2-enamide]	A (A binding rate of 80% or more is rated “A”)
7.48	7.23	Cn1cnc2c(Cl)c(-c3cccn4c(C(=O)c5cc(F)c(NC(=O)/C=C/CNC(C)(C)C)c(F)c5)ccc34)c(Cl)cc21 (single isomer, unassigned) [Example 20-2, (E)-4-(tert-butylamino)-N-(4-(8-(4,6-dichloro-1-methyl-1H-benzo[d]imidazol-5-yl)indolizine-3-carbonyl)-2,6-difluorophenyl)but-2-enamide]	A (A binding rate of 80% or more is rated “A”)
7.64	7.14	CCc1cc2c(nc(C)n2C)c(Cl)c1-c1cccn2c(C(=O)c3cc(F)c(NC(=O)/C=C/CN[C@H]4CC[C@H](OC)CC4)c(F)c3)ccc12 (single isomer, unassigned) [Example 22-1, (E)-N-(4-(8-(4-chloro-6-ethyl-1,2-dimethyl-1H-benzo[d]imidazol-5-yl)indolizine-3-carbonyl)-2,6-difluorophenyl)-4-(((1r,4r)-4-methoxycyclohexyl)amino)but-2-enamide]	A (A binding rate of 80% or more is rated “A”)
